Reference: patent US12060366B2, “Bispecific degraders” (DANA-FARBER CANCER INSTITUTE, INC., priority 2018, dated 2024)

Columns and labels:
Type in all cases: cell-based
Details in all cases: Flip-In 293 cells stably expressing eGFP-bromodomain fusion and mCherry; compound titrated, 5 h incubation; FIG. 1, 2A, 2B
[1] = tested on: BRD4BD1, BRD4BD2; assay: Degradation of eGFP-fused BRD4 bromodomains, eGFP/mCherry reporter flow cytometry
Procedure: (§1) BRD2BD1, BRD2BD2, BRD3BD1, BRD3BD2, BRD4BD1, and BRD4BD2 were subcloned into mammalian pcDNA5/FRT Vector (Ampicillin and Hygromycin B resistant) modified to contain MCS-eGFP-P2A-mCherry. Stable cell lines expressing eGFP-protein fusion and mCherry reporter were generated using Flip-In 293 system. Plasmid (0.3 μg) and pOG44 (4.7 μg) DNA were preincubated in 100 μL of Opti-MEM™ I (Gibco™, Life Technologies™) media containing 0.05 mg/ml Lipofectamine® 2000 (Invitrogen™) for 20 min and added to Flip-In 293 cells containing 1.9 ml of Dulbecco's Modified Eagle's medium (DMEM) (Gibco™, Life Technologies™) per well in a 6-well plate format (Falcon, 353046). […]
(§2) Cells were seeded at 30-50% confluency in either 24, 48 or 96 well plates (3524, 3548, 3596 respectively, Costar) a day before compound treatment. The inventive compound 3 was titrated and then was incubated with cells for 5 h following trypsinization and resuspension in DMEM, transferred into 96-well plates (353910, Falcon®) and analyzed by flow cytometer (Guava® easyCyte™ HT, Millipore™). Signal from at least 3000 events per well was acquired and the eGFP and mCherry florescence monitored. Data was analyzed using FlowJo® (FlowJo®, LCC). […] The eGFP protein abundance relative to mCherry was then quantified as a ten-fold amplified ratio for each individual cell using the formula: 10× eGFP/mCherry. […]

[2] = tested on: BRD3BD1, BRD3BD2; assay: Degradation of eGFP-fused BRD3 bromodomains, eGFP/mCherry reporter flow cytometry
Procedure: as §1, §2

[3] = tested on: BRD2BD1, BRD2BD2; assay: Degradation of eGFP-fused BRD2 bromodomains, eGFP/mCherry reporter flow cytometry
Procedure: as §1, §2

Structure (SMILES) | degradation of stably expressed bromodomains of BRD4 (GFP/mCherry ratio) [1] | degradation of stably expressed bromodomains of BRD3 (GFP/mCherry ratio) [2] | degradation of stably expressed bromodomains of BRD2 (GFP/mCherry ratio) [3]
COC(=O)C[C@@H]1N=C(c2ccc(Cl)cc2)c2c(sc(C(=O)NCCCCCCCCNc3cccc(C(=O)NC4CCC(=O)NC4=O)n3)c2C)-n2c(C)nnc21 (stereo partly drawn) [compound 1, methyl 2-((6S)-4-(4-chlorophenyl)-2-((8-((6-((2,6-dioxopiperidin-3-yl)carbamoyl)pyridin-2-yl)amino)octyl)carbamoyl)-3,9-dimethyl-6H-thieno[3,2-f][1,2,4]triazolo[4,3-a][1,4]diazepin-6-yl)acetate] | able to efficiently degrade | able to efficiently degrade | able to efficiently degrade
COC(=O)C[C@@H]1N=C(c2ccc(Cl)cc2)c2c(sc(C(=O)NCCCCCNc3cccnc3C(=O)NC3CCC(=O)NC3=O)c2C)-n2c(C)nnc21 (stereo partly drawn) [compound 3, methyl 2-((6S)-4-(4-chlorophenyl)-2-((5-((2-((2,6-dioxopiperidin-3-yl)carbamoyl)pyridin-3-yl)amino)pentyl)carbamoyl)-3,9-dimethyl-6H-thieno[3,2-f][1,2,4]triazolo[4,3-a][1,4]diazepin-6-yl)acetate] | only the first bromodomain of BRD4 is degraded |  | 
